Results taken from ChEMBL document CHEMBL1130579, “Design and synthesis of curacin a analogs with varied side chain structures” (Bioorg Med Chem Lett, 1997).
≈ marks a conversion by molar mass, not a printed value.

Assays:
[1] = target: T1, Tubulin alpha chain (Sus scrofa, UniProt P02550); assay: Compound was tested for inhibitory activity against tubulin polymerization; format: functional
[2] = target: Tubulin alpha chain (Sus scrofa) (UniProt P02550); assay: Compound was tested for percentage of tubulin polymerized at 50 uM dose of compound; format: functional
[3] = tested on: NCI-H69; assay: Compound was tested for its cytotoxicity against NCI-H69 human lung cancer cell line; format: functional, cell-based
[4] = tested on: WiDr; assay: Compound was tested for its cytotoxicity against WiDr human colon cancer cell line; format: functional, cell-based
[5] = tested on: PC-9; assay: Compound was tested for its cytotoxicity against PC-9 human lung cancer cell line; format: functional, cell-based
[6] = target: T1, Tubulin alpha chain; assay: Compound was evaluated for its anti tubulin activity

T1 sequence (P02550 whole entry, looked up): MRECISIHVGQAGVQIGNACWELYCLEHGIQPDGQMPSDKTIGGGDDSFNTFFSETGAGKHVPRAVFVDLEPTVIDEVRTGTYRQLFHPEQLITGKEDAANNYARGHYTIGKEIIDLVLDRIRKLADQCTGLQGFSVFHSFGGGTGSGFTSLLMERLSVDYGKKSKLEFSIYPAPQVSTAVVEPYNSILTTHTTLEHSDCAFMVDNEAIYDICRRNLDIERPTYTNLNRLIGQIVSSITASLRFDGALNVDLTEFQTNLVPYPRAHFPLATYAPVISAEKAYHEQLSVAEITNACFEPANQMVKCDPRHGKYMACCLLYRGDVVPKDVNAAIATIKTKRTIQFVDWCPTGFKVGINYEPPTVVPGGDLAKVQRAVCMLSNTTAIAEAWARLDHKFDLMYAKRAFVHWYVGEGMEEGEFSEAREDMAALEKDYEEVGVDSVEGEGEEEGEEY
Tubulin alpha chain (Sus scrofa), sequence (P02550 whole entry, looked up): as above

Structure (SMILES) | IC50 [1] [µM] | Activity [2] [%] | IC50 [3] [µg/mL] | IC50 [4] [µg/mL] | IC50 [5] [µg/mL] | IC50 [6] [µM]
C[C@H]1C[C@H]1C1=N[C@H](/C=C\CCc2ccccc2)CS1 | > 50 | 71 | 34.1 (≈ 125 µM) | 19.6 (≈ 72.3 µM) | 30.1 (≈ 111 µM) | 
CCCCCCc1ccc(CC/C=C\[C@@H]2CSC([C@@H]3C[C@@H]3C)=N2)cc1 | > 50 | 95 | 76.5 (≈ 215 µM) | 42.5 (≈ 119 µM) | 50.2 (≈ 141 µM) | 
CC(C)=C/C=C/CC/C=C\[C@@H]1CSC([C@@H]2C[C@@H]2C)=N1 | > 50 | 100 |  |  |  | 
CCCCCCCc1cccc(CC/C=C\[C@@H]2CSC([C@@H]3C[C@@H]3C)=N2)c1 | > 50 | 85 | 64.7 (≈ 175 µM) | 69.3 (≈ 187 µM) | 35.5 (≈ 96.1 µM) | 
CCCCCCCCCCCC/C=C\[C@@H]1CSC([C@@H]2C[C@@H]2C)=N1 | > 50 | 100 | 54.1 (≈ 161 µM) | 84.9 (≈ 253 µM) | 77.2 (≈ 230 µM) | 
C[C@H]1C[C@H]1C1=N[C@H](/C=C\CCCc2ccccc2)CS1 | > 50 | 93 | 45.2 (≈ 158 µM) | 19.3 (≈ 67.6 µM) | 24 (≈ 84 µM) | 
C=CC[C@@H](CC/C(C)=C/C=C/CC/C=C\[C@@H]1CSC([C@@H]2C[C@@H]2C)=N1)OC [CURACIN A] | 2.5 |  | 0.89 (≈ 2.38 µM) | < 0.2 | 19.6 (≈ 52.5 µM) | 
C/C=C/CC/C=C\[C@@H]1CSC([C@@H]2C[C@@H]2C)=N1 | > 50 | 84 | 31.7 (≈ 135 µM) | 33.7 (≈ 143 µM) | 37.7 (≈ 160 µM) | 
C=CC[C@@H](CC/C(C)=C/C=C/CC/C=C\[C@@H]1CSC(C2CC2C)=N1)OC (single isomer, unassigned) [CURACIN A] |  |  |  |  |  | 2.5
